{"source": "ChEMBL document CHEMBL5154942", "about": "“Discovery of Clinical Candidate NTQ1062 as a Potent and Bioavailable Akt Inhibitor for the Treatment of Human Tumors” (J Med Chem, 2022)", "key": {"[1]": {"assay": "AUC (0 to t) in Sprague-Dawley rat at 5 mg/kg, iv measured upto 24 hrs by UPLC-MS/MS analysis", "assay_type": "ADME, organism-based", "parameters": "time < 24 hrs, dose 5 mg/kg, route iv", "conditions": "in vivo"}, "[2]": {"assay": "Half life in crab-eating monkey at 6 mg/kg, ig by UPLC-MS/MS analysis", "assay_type": "ADME, organism-based, Macaca fascicularis", "conditions": "cynomolgus monkey, in vivo, po"}, "[3]": {"assay": "AUC (0 to t) in crab-eating monkey at 6 mg/kg, ig by UPLC-MS/MS analysis", "assay_type": "ADME, organism-based, Macaca fascicularis", "parameters": "dose 6 mg/kg, route ig", "conditions": "cynomolgus monkey, in vivo, po"}, "LNCaP [4]": {"test_system": "LNCaP", "assay": "Induction of cell cycle arrest in human LNCap cells assessed as decrease in accumulation at G2/M phase at 0.04 to 1 uM incubated for 24 hrs by flow cytometry", "assay_type": "functional, cell-based", "conditions": "dose 0.04-1 µM"}, "LNCaP [5]": {"test_system": "LNCaP", "assay": "Antitumor activity against human LNCaP cells xenografted in NCG mouse assessed as tumor growth inhibition at 25 mg/kg administered once daily for 18 to 21 days relative to control", "assay_type": "functional", "conditions": "time 18-21 day, read-out: TGI"}, "LNCaP [6]": {"test_system": "LNCaP", "assay": "Induction of apoptosis in human LNCaP cells assessed as viable cells at 1.25 uM incubated for 72 hrs by annexin V/PI double staining based flow cytometry method (reference value: 93.63 %)", "assay_type": "functional", "conditions": "read-out: Activity"}, "[7]": {"assay": "Metabolic stability in Crab eating monkey liver microsomes assessed as parent compound remaining at 1 uM measured after 60 mins by UPLC-MS/MS analysis", "assay_type": "ADME, Macaca fascicularis, Microsome", "conditions": "cynomolgus monkey, read-out: Stability"}, "[8]": {"assay": "Oral bioavailability in overnight fasted ICR mouse at 10 mg/kg measured upto 24 hrs by UPLC-MS/MS analysis", "assay_type": "ADME, organism-based", "conditions": "in vivo"}, "LNCaP [9]": {"test_system": "LNCaP", "assay": "In vivo inhibition of AKT in human LNCaP cells xenografted in NCG mouse assessed as reduction in GSK-3beta phosphorylation at 25 to 50 mg/kg administered for 21 days and measured after 4 hrs post last dose by Western blot analysis", "assay_type": "functional, organism-based", "conditions": "dose lower […], dose upper 50.0 mg/kg, time 21.0 day"}, "LNCaP [10]": {"test_system": "LNCaP", "assay": "Induction of apoptosis in human LNCaP cells assessed as early apoptotic cells at […] incubated for 72 hrs by annexin V/PI double staining based flow cytometry method (reference value: […])", "assay_type": "functional"}, "[11]": {"assay": "Half life in Sprague-Dawley rat at 10 mg/kg, ig by UPLC-MS/MS analysis", "assay_type": "ADME, organism-based", "conditions": "in vivo, po"}, "[12]": {"assay": "Apparent volume of distribution at steady state in Sprague-Dawley rat at 5 mg/kg, iv measured upto 24 hrs by UPLC-MS/MS analysis", "assay_type": "ADME, organism-based", "conditions": "in vivo, read-out: Vdss(app)"}, "[13]": {"assay": "Bioavailability in crab-eating monkey at 6 mg/kg, ig by UPLC-MS/MS analysis", "assay_type": "ADME, organism-based, Macaca fascicularis", "conditions": "cynomolgus monkey, in vivo, po"}, "LNCaP [14]": {"test_system": "LNCaP", "assay": "Induction of apoptosis in human LNCaP cells assessed as early apoptotic cells at 1.25 uM incubated for 72 hrs by annexin V/PI double staining based flow cytometry method (reference value: […])", "assay_type": "functional"}, "LNCaP [15]": {"test_system": "LNCaP", "assay": "Induction of cell cycle arrest in human LNCap cells assessed as decrease in accumulation at S phase at 0.04 to 1 uM incubated for 24 hrs by flow cytometry", "assay_type": "functional, cell-based", "conditions": "dose 0.04-1 µM"}, "[16]": {"assay": "Tmax in NCG mouse xenografted with human LNCaP cells at 25 mg/kg administered once daily for 18 to 21 days and measured upto 10 hrs post last dose by LC-MS/MS analysis", "assay_type": "ADME, organism-based", "conditions": "in vivo, time 18-21 day"}, "[17]": {"assay": "Tmax in NCG mouse xenografted with human LNCaP cells at 12.5 mg/kg administered once daily for 18 to 21 days and measured upto 10 hrs post last dose by LC-MS/MS analysis", "assay_type": "ADME, organism-based", "conditions": "in vivo, time 18-21 day"}, "LNCaP [18]": {"test_system": "LNCaP", "assay": "Induction of apoptosis in human LNCaP cells assessed as apoptotic cells incubated for 72 hrs by annexin V/PI double staining based flow cytometry method", "assay_type": "functional, cell-based", "conditions": "dose 0.62-2.5 µM, DDE = dose-dependent effect"}, "[19]": {"assay": "Tmax in crab-eating monkey at 6 mg/kg, ig by UPLC-MS/MS analysis", "assay_type": "ADME, organism-based, Macaca fascicularis", "conditions": "cynomolgus monkey, in vivo, po"}, "LNCaP [20]": {"test_system": "LNCaP", "assay": "Induction of apoptosis in human LNCap cells assessed as necrotic cells incubated for 72 hrs by annexin V/PI double staining based flow cytometry method", "assay_type": "functional, cell-based", "conditions": "dose 0.62-2.5 µM, DDE = dose-dependent effect"}, "[21]": {"assay": "AUC (0 to infinity) in Sprague-Dawley rat at 5 mg/kg, iv measured upto 24 hrs by UPLC-MS/MS analysis", "assay_type": "ADME, organism-based", "parameters": "dose 5 mg/kg, time < 24 hrs, route iv", "conditions": "in vivo"}, "[22]": {"assay": "Cmax in NCG mouse xenografted with human LNCaP cells at 12.5 mg/kg administered once daily for 18 to 21 days and measured upto 10 hrs post last dose by LC-MS/MS analysis", "assay_type": "ADME, organism-based", "conditions": "in vivo"}, "[23]": {"assay": "Apparent volume of distribution at steady state in crab-eating monkey at 3 mg/kg, iv measured upto 24 hrs by UPLC-MS/MS analysis", "assay_type": "ADME, organism-based, Macaca fascicularis", "conditions": "cynomolgus monkey, in vivo, read-out: Vdss(app)"}, "[24]": {"assay": "AUC (0 to t) in NCG mouse xenografted with human LNCaP cells at 12.5 mg/kg administered daily once for 18 to 21 days and measured upto 10 hrs post last dose by LC-MS/MS analysis", "assay_type": "ADME, organism-based", "conditions": "in vivo"}, "Cytochrome P450 1A2": {"biological_target": "T1, Cytochrome P450 1A2 (Homo sapiens, UniProt P05177)", "T1 sequence (P05177 whole entry)": "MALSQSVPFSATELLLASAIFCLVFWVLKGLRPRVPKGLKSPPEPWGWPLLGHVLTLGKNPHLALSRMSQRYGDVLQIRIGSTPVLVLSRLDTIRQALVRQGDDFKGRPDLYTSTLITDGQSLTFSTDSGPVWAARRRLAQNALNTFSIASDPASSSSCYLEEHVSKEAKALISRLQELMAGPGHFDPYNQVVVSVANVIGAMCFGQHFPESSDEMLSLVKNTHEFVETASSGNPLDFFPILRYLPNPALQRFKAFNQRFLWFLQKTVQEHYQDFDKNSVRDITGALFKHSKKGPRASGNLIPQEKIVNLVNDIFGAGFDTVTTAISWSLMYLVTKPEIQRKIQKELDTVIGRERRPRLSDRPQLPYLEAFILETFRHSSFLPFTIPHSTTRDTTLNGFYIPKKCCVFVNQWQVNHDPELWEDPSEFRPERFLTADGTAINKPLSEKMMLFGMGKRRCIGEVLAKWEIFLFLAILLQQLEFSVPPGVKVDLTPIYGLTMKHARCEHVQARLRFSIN", "assay": "Inhibition of CYP1A2 in human liver microsomes at 0.01 to 30 uM […] in presence of NADPH by UPLC-MS/MS analysis", "assay_type": "ADME, Microsome"}, "[25]": {"assay": "AUC (0 to t) in NCG mouse xenografted with human LNCaP cells at 50 mg/kg administered daily once for 18 to 21 days and measured upto 10 hrs post last dose by LC-MS/MS analysis", "assay_type": "ADME, organism-based", "parameters": "dose 50 mg/kg, time 18-21 day", "conditions": "in vivo"}, "[26]": {"assay": "Cmax in Sprague-Dawley rat at 10 mg/kg, ig by UPLC-MS/MS analysis", "assay_type": "ADME, organism-based", "parameters": "dose 10 mg/kg, route ig", "conditions": "in vivo, po"}, "[27]": {"assay": "Metabolic stability in Sprague-Dawley rat liver microsomes assessed hepatic clearance at 1 uM measured after 60 mins by LC-MS/MS analysis", "assay_type": "ADME, Microsome", "conditions": "1 h"}, "[28]": {"biological_target": "Protein kinase C eta type (Homo sapiens) (UniProt P24723)", "sequence (P24723 whole entry)": "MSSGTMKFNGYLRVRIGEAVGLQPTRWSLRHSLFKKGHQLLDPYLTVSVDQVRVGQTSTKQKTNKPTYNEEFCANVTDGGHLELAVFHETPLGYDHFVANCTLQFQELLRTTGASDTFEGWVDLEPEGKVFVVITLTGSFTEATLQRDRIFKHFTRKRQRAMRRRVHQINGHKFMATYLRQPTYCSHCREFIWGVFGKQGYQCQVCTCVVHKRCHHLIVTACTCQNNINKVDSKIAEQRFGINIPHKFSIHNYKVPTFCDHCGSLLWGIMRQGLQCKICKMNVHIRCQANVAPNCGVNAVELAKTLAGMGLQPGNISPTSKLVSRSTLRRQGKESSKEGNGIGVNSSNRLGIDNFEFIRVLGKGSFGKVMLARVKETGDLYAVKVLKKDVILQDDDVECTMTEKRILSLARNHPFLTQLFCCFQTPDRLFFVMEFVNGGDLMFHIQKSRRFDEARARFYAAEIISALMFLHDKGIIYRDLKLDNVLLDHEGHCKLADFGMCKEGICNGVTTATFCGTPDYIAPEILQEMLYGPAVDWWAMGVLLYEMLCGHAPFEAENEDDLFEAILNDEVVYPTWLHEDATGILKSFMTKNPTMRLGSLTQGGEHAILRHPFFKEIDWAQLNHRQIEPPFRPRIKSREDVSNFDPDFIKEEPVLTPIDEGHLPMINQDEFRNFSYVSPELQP", "assay": "Inhibition of PKCeta (unknown origin) at 1 uM in presence of ATP at Km concentration by mobility shift assay relative to control"}, "[29]": {"assay": "Cmax in NCG mouse xenografted with human LNCaP cells at 25 mg/kg administered once daily for 18 to 21 days and measured upto 10 hrs post last dose by LC-MS/MS analysis", "assay_type": "ADME, organism-based", "parameters": "time upper 21 day, time lower 18 day, dose 25 mg/kg", "conditions": "in vivo"}}, "note": "Activity calls are given as the source filed them. The calls are words filed in the database; no cut-off is given here.", "data": [{"smiles": "CC(C)NC[C@@H](C(=O)N1CCN(c2ncnc3c2[C@H](C)CC(=O)N3)[C@H]2C[C@H]21)c1ccc(Cl)cc1", "values": [{"measurement": "AUC(0-t) at 24 h", "setting": "[1]", "result": 1760, "unit": "ng·h/mL"}, {"measurement": "half-life", "setting": "[2]", "result": 6.16, "unit": "h"}, {"measurement": "AUC(0-t)", "setting": "[3]", "result": 1480, "unit": "ng·h/mL"}, {"measurement": "Activity", "setting": "LNCaP [4]", "result": "Active"}, {"measurement": "inhibition in vivo at 25 mg/kg", "setting": "LNCaP [5]", "result": 95.5, "unit": "%"}, {"measurement": "viability at 1.25 µM", "setting": "LNCaP [6]", "result": 69.8, "unit": "%"}, {"measurement": "remaining at 1 h, 1 µM", "setting": "[7]", "result": 23.1, "unit": "%"}, {"measurement": "bioavailability", "setting": "[8]", "result": 29.7, "unit": "%"}, {"measurement": "Activity", "setting": "LNCaP [9]", "result": "Active"}, {"measurement": "Activity", "setting": "LNCaP [10]; dose 0.62 µM", "result": 6.55, "unit": "%"}, {"measurement": "Activity", "setting": "LNCaP [10]; dose 2.5 µM", "result": 22.54, "unit": "%"}, {"measurement": "half-life", "setting": "[11]", "result": 3.28, "unit": "h"}, {"measurement": "Vd", "setting": "[12]", "result": 7.76, "unit": "L/kg"}, {"measurement": "bioavailability", "setting": "[13]", "result": 41.2, "unit": "%"}, {"measurement": "Activity", "setting": "LNCaP [14]", "result": 12.6, "unit": "%"}, {"measurement": "Activity", "setting": "LNCaP [15]", "result": "Active"}, {"measurement": "Tmax", "setting": "[16]", "result": 4, "unit": "h"}, {"measurement": "Tmax", "setting": "[17]", "result": 2, "unit": "h"}, {"measurement": "Activity", "setting": "LNCaP [18]", "result": "Dde"}, {"measurement": "Tmax", "setting": "[19]", "result": 4, "unit": "h"}, {"measurement": "Activity", "setting": "LNCaP [20]", "result": "Dde"}, {"measurement": "AUC(0-inf)", "setting": "[21]", "result": 1800, "unit": "ng·h/mL"}, {"measurement": "Cmax", "setting": "[22]", "result": 963, "unit": "ng/mL"}, {"measurement": "Vd", "setting": "[23]", "result": 8.36, "unit": "L/kg"}, {"measurement": "AUC(0-t)", "setting": "[24]", "result": 7030, "unit": "ng·h/mL"}, {"measurement": "IC50", "setting": "Cytochrome P450 1A2", "result": "> 50", "unit": "µM"}, {"measurement": "AUC(0-t)", "setting": "[25]", "result": 22000, "unit": "ng·h/mL"}, {"measurement": "Cmax", "setting": "[26]", "result": 705, "unit": "ng/mL"}, {"measurement": "CLH", "setting": "[27]", "result": "< 12.2", "unit": "mL/min/kg"}, {"measurement": "inhibition", "setting": "[28]", "result": 90, "unit": "%"}, {"measurement": "Cmax", "setting": "[29]", "result": 1980, "unit": "ng/mL"}]}]}
